Data published in ChEMBL document CHEMBL2177100, “Structural optimization and structure-activity relationships of N2-(4-(4-Methylpiperazin-1-yl)phenyl)-N8-phenyl-9H-purine-2,8-diamine derivatives, a new class of reversible kinase inhibitors targeting both EGFR-activating and resistance mutations” (J Med Chem, 2012).
The source made the active and inactive calls. No cut-off for these calls is given here.

Tests used:
[1] = Cytotoxicity against human HCC827 cells incubated for 72 hrs by MTT assay; type: functional, cell-based; settings: HCC827, 72 h
[2] = tested on: NCI-H1975; test: Cytotoxicity against human NCI-H1975 cells incubated for 72 hrs by MTT assay; type: functional, cell-based; settings: NCI-H1975, 72 h
[3] = tested on: HepG2; test: Cytotoxicity against human HepG2 cells incubated for 72 hrs by MTT assay; type: functional, cell-based; settings: HepG2, 72 h
[4] = tested on: NCI-H1975; test: Antitumor activity against human NCI-H1975 cells xenografted in BALB/c mouse assessed as inhibition of tumor growth at 20 mg/kg, po qd; type: functional; settings: read-out: TGI
[5] = tested on: Mus musculus; test: Toxicity in human NCI-H1975 cells xenografted BALB/c mouse assessed as body weight loss at 20 mg/kg, po qd; type: organism-based; parameters: dose 20 mg/kg, route oral; settings: in vivo
[6] = tested on: PC-9; test: Cytotoxicity against human PC9 cells incubated for 72 hrs by MTT assay; type: functional, cell-based; settings: PC-9, 72 h
[7] = tested on: HCC827; test: Antitumor activity against human HCC827 cells xenografted in BALB/c mouse assessed as reduction tumor volume at 100 mg/kg, po qd; type: functional, organism-based; parameters: dose 100 mg/kg
[8] = target: Epidermal growth factor receptor (Homo sapiens, UniProt P00533, L858R); test: Inhibition of EGFR L858R mutant; type: protein assay
Sequence of Epidermal growth factor receptor (Homo sapiens, UniProt P00533, L858R) (P00533 25-1210 L858R limits assumed): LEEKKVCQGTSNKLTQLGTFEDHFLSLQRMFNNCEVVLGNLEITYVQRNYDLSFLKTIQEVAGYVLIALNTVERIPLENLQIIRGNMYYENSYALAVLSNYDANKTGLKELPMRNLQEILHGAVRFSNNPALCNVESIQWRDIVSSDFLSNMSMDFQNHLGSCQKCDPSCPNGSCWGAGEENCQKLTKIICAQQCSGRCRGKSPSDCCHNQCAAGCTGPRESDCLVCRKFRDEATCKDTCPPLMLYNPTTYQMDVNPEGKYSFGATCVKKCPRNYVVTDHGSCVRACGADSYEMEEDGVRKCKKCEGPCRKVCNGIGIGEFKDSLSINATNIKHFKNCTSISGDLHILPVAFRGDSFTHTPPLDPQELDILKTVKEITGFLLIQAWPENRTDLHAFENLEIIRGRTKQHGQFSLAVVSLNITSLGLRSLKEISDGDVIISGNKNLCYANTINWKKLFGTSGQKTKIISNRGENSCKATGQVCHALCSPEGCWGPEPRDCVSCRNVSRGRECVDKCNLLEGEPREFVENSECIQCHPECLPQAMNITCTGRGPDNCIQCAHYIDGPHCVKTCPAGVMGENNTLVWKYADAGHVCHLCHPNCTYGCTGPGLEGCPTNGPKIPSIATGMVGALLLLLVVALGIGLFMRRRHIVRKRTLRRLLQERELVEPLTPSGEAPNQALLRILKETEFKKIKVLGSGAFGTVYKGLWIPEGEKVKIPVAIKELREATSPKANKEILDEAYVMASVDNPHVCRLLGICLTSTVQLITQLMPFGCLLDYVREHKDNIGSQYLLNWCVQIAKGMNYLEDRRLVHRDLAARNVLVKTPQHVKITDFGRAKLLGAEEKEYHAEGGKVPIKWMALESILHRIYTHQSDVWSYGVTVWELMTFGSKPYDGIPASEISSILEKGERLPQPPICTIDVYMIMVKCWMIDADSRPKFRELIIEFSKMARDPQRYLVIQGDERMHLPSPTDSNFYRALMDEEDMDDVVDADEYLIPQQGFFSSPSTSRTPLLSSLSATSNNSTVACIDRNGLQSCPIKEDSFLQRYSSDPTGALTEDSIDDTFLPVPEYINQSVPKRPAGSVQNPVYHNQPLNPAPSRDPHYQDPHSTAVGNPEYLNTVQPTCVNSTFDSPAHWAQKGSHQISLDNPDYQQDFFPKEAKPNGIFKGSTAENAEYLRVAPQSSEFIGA

[9] = target: Epidermal growth factor receptor (Homo sapiens, UniProt P00533, L858R/T790M); test: Inhibition of EGFR L858R/T790M mutant; type: protein assay
Sequence of Epidermal growth factor receptor (Homo sapiens, UniProt P00533, L858R/T790M) (P00533 25-1210 T790M/L858R limits assumed): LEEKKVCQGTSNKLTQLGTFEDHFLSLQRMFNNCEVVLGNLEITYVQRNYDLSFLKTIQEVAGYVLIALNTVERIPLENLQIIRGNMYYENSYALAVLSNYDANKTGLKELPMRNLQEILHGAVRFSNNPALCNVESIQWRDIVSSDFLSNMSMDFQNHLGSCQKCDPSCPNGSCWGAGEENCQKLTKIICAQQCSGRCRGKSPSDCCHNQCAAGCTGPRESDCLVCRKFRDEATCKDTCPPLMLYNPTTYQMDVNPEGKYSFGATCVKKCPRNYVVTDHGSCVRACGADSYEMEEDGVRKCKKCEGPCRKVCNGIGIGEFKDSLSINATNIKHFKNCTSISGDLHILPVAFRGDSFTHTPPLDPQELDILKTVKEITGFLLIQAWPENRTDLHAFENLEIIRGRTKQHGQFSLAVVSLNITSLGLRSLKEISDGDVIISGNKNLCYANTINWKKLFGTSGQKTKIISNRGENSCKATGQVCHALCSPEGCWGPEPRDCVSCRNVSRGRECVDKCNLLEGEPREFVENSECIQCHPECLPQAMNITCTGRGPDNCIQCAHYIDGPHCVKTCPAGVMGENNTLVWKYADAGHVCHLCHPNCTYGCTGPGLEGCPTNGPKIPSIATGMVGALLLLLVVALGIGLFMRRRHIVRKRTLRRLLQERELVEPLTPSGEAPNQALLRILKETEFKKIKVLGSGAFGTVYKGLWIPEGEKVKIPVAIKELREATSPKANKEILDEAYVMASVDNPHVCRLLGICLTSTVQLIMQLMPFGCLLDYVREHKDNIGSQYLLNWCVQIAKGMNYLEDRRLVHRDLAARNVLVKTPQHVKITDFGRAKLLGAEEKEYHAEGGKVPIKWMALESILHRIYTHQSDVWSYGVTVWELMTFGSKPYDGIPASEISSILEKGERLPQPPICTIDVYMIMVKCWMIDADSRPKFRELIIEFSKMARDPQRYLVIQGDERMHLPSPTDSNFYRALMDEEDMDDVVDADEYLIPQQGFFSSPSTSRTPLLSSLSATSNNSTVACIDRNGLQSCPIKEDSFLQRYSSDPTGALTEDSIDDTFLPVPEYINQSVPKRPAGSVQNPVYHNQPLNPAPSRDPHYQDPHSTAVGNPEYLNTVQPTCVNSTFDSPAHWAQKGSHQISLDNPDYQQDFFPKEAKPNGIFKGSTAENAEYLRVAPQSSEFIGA

SMILES	IC50 [1] [nM]	IC50 [2] [nM]	IC50 [3] [nM]	further results
Cc1cc(C)cc(-n2c(Nc3ccccc3)nc3cnc(Nc4ccc(N5CCN(C)CC5)cc4)nc32)c1	1	1910	> 5000	
CN1CCN(c2ccc(Nc3ncc4nc(Nc5ccccc5)n(C5CCCCC5)c4n3)cc2)CC1	< 0.01	390	> 5000	
CN(C)C/C=C/C(=O)Nc1cc2c(Nc3ccc(F)c(Cl)c3)ncnc2cc1O[C@H]1CCOC1 [AFATINIB]				inhibition in vivo at 20 mg/kg [4]: 74%; Activity [5]: 6.6%
CN1CCN(c2ccc(Nc3ncc4nc(Nc5cccc([N+](=O)[O-])c5)n(C5CCCC5)c4n3)cc2)CC1	< 0.01	980	> 5000	
CN1CCN(c2ccc(Nc3ncc4nc(Nc5cc(Cl)ccc5Cl)n(C5CCCC5)c4n3)cc2)CC1	0.01	2540	> 5000	
CN1CCN(c2ccc(Nc3ncc4nc(Nc5cccc(C(=O)Nc6ccc(Cl)cc6)c5)n(C5CCCC5)c4n3)cc2)CC1	2900	4010	> 5000	
COc1cc2ncnc(Nc3ccc(F)c(Cl)c3)c2cc1OCCCN1CCOCC1 [GEFITINIB]				IC50 [6]: 14 nM; TGI [7]: Active
Cc1cccc(Nc2nc3cnc(Nc4ccc(N5CCN(C)CC5)cc4)nc3n2C2CCCC2)c1	< 0.01	560	4700	
c1ccc(Nc2nc3cnc(Nc4ccc(N5CCOCC5)cc4)nc3n2C2CCCC2)cc1	0.66	9200	> 5000	
CN1CCN(c2ccc(Nc3ncc4nc(Nc5cccc(NC(=O)c6ccccc6)c5)n(C5CCCC5)c4n3)cc2)CC1	15	2120	2600	
CN1CCN(c2ccc(Nc3ncc4nc(Nc5ccccc5)[nH]c4n3)cc2)CC1	233	18100	> 5000	IC50 [8]: 98 nM; IC50 [9]: 978 nM
CN1CCN(c2ccc(Nc3ncc4nc(Nc5cccc(O)c5)n(C5CCCC5)c4n3)cc2)CC1	0.72	1020	4200	
OCCNc1ccc(Nc2ncc3nc(Nc4ccccc4)n(C4CCCC4)c3n2)cc1	2.8	2810	> 5000	
CN1CCN(c2ccc(Nc3ncc4nc(Nc5ccccc5)n(C5CC5)c4n3)cc2)CC1	18	2860	> 5000	
CC(C)n1c(Nc2ccccc2)nc2cnc(Nc3ccc(N4CCN(C)CC4)cc3)nc21	0.1	960	> 5000	
c1ccc(Nc2ncc3nc(Nc4ccccc4)n(C4CCCC4)c3n2)cc1	2.7	> 10000	> 5000	
CC(=O)Nc1ccc(Nc2ncc3nc(Nc4ccccc4)n(C4CCCC4)c3n2)cc1	0.47	1210	> 5000	
CN1CCN(c2ccc(Nc3ncc4nc(Nc5cccc(Cl)c5)n(C5CCCC5)c4n3)cc2)CC1	< 0.01	390	4800	
CC1CCN(c2ccc(Nc3ncc4nc(Nc5ccccc5)n(C5CCCC5)c4n3)cc2)CC1	32	9800	> 5000	
CN1CCN(c2ccc(Nc3ncc4nc(Nc5ccc(Br)cc5)n(C5CCCC5)c4n3)cc2)CC1	2.2	2090	> 5000	
CN1CCN(c2ccc(Nc3ncc4nc(Nc5ccccc5)n(C)c4n3)cc2)CC1	24	6060	> 5000	
CN1CCN(c2ccc(Nc3ncc4nc(Nc5ccc(Br)cc5F)n(C5CCCC5)c4n3)cc2)CC1	2.3	1120	> 5000	
C#Cc1cccc(Nc2nc3cnc(Nc4ccc(N5CCN(C)CC5)cc4)nc3n2C2CCCC2)c1	< 0.01	650	4900	
CN1CCN(c2ccc(Nc3ncc4nc(Nc5ccccc5)n(-c5ccccc5)c4n3)cc2)CC1	1.7	1830	> 5000	
